Measured values published in patent publication US9018395B2, “Pyrazolopyridine and pyrazolopyrimidine derivatives as melanocortin-4 receptor modulators” (Université de Montréal, priority 2011, dated 2015).

Each molecule was assayed against T1, wild-type human melanocortin 4 receptor (WT-hMC4R) (Homo sapiens, UniProt P32245) (assay: Cyclic AMP assay (HTRF), antagonist competition against NDP-α-MSH). Settings: HEK293T cells expressing double-tagged WT-hMC4R; cAMP accumulation; 1 hour compound then 4 nM NDP-α-MSH 30 min.
T1 construct: expressed in transfected cells; cDNA from UMR cDNA resource center
T1 sequence (P32245 whole entry): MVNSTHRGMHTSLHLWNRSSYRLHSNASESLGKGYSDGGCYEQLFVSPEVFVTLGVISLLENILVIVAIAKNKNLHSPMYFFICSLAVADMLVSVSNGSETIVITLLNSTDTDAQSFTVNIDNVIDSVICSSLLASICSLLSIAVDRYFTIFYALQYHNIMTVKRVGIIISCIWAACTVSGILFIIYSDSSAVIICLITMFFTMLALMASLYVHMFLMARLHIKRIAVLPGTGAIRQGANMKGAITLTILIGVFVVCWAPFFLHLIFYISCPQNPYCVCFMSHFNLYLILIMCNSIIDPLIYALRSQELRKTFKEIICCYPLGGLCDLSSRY
Type: cell-based
Description: Intracellular cyclic 3′-5′ adenosine monophosphate (cAMP) accumulation was measured using a competitive immunoassay based on HTRF (Homogeneous Time-Resolved Fluorescence) technology (cAMP dynamic-2, Cis-Bio).
HEK293T stable cell line expressing double-tagged WT-hMC4R construct were collected and washed in cAMP buffer (1XD-PBS pH 7.4, 0.1% glucose). 40,000 cells/well were then dispensed in 96-well plates in cAMP buffer [1XD-PBS, 1% BSA, 0.1% Glucose, 0.75 mM 3-isobutyl-1methyl-xanthine (IBMX, Sigma)] and incubated either for antagonist competition assay: 1 hour at 37° C. with various concentrations of compound [0.01 nM-10 μM] followed by 30 min incubation at 37° C. with 4 nM of NDP-α-MSH (Sigma) or for agonist assay: 1 hour at 37° C. with various concentrations of compound [0.01 nM-10 μM]. 10,000 cells were transferred in 384-well plates, lysed and incubated with cAMP labeled with the dye d2 and anti-cAMP M-Antibody labeled with Cryptate following the manufacturer's protocol.
Reading of HTRF signal was performed on Artemis TR-FRET plate reader (Cosmo Bio).
All curve fitting was conducted using non-linear regression analyses from PRISM (version 4.0c, GraphPad Inc.) and the determination of Rmax and EC50 or IC50 parameters were obtained from sigmoidal dose-response phase (variable slope) equation.
A cDNA encoding a wild-type human MC4R with a 3 tandem copies of Hemaglutinine (HA) epitote sequence from UMR cDNA resource center was modified using known techniques in the art (e.g., PCR, cloning) to fused in frame at the C-terminal a venus-Yellow Fluorescent Protein (YFP) cDNA.
The resultant cDNA was then subcloned in eukaryotic expression vector, e.g. pcDNA 3.1(+) (Invitrogen).
The double tagged WT-hMC4R was transfected in HEK293T cells with lipofectamine (Invitrogen) following the manufacturer's instructions and permanently transfected clonal cell lines were selected by resistance to the neomycin analog G418.
HEK293T stable cell line expressing wild-type human melanocortin 4 receptor (WT-hMC4R) containing an N-terminal 3xHA epitope tag and an intracellular C-terminal venus-yellow fluorescent protein (v-YFP) were maintained at 37° C. in humidified air containing 5% CO2 in Dulbecoo's modified Eagle's medium (DMEM) supplemented with 10% fetal bovine serum (FBS), 100 U/ml penicillin/streptomycin (DMEM complete/10% FBS). Cells were generally at 70%-80% confluence on the day of assay.

| Structure (SMILES) | IC50 [µM] |
| --- | --- |
| CCCCN(CCCC)C(=O)c1ccn2nc(-c3ccc(OC)cc3)c(CCCN3CCCCC3)c2c1 [Example 1, N,N-Dibutyl-2-(4-methoxyphenyl)-3-(3-(piperidin-1-yl)propyl)pyrazolo[1,5-a]pyridine-5-carboxamide] | 1 to 5 |
| COc1ccc(-c2nn3ccc(C(=O)N(CCC(C)C)CCC(C)C)cc3c2CCCN2CCCCC2)cc1 [Example 2] | 1 to 5 |
| COc1ccc(-c2nn3ccc(C(=O)N(CCC(C)C)CCC(C)C)cc3c2/C=C/CN2CCCCC2)cc1 [Example 3] | 0.5 to 1 |
| CC(C)CCN(CCC(C)C)C(=O)c1ccn2nc(-c3ccc(C(C)(C)C)cc3)c(CCCN3CCCCC3)c2c1 [Example 4] | 1 to 5 |
| CC(C)CCN(CCC(C)C)C(=O)c1ccn2nc(-c3ccc(C(C)(C)C)cc3)c(/C=C/CN3CCCCC3)c2c1 [Example 5] | 1 to 5 |
| CC(C)CCN(CCC(C)C)C(=O)c1ccn2nc(-c3ccc(C(C)(C)C)cc3)c(/C=C/CN3CCCC3)c2c1 [Example 6] | 1 to 5 |
| CCCCN(CCCC)C(=O)c1ccn2nc(-c3ccc(C(C)(C)C)cc3)c(/C=C/CN3CCCCC3)c2c1 [Example 7] | 5 to 15 |
| CC(C)CCN(CCC(C)C)C(=O)c1ccn2nc(-c3ccc(C(C)(C)C)cc3)c(CCCN3CCCC3)c2c1 [Example 8] | 1 to 5 |
| CCCCN(CCCC)C(=O)c1ccn2nc(-c3ccc(C(C)(C)C)cc3)c(CCCN3CCCC3)c2c1 [Example 9] | 5 to 15 |
| CC(C)CCN(CCC(C)C)C(=O)c1ccn2nc(-c3ccc(Cl)cc3)c(/C=C/CN3CCCCC3)c2c1 [Example 10, (E)-2-(4-chlorophenyl)-N,N-diisopentyl-3-(3-(piperidin-1-yl)prop-1-en-1-yl)pyrazolo[1,5-a]pyridine-5-carboxamide] | 0.5 to 1 |
| CC(C)CCN(CCC(C)C)C(=O)c1ccn2nc(-c3ccc(Cl)cc3)c(CCCN3CCCCC3)c2c1 [Example 11, 2-(4-Chlorophenyl)-N,N-diisopentyl-3-(3-(piperidin-1-yl)propyl)pyrazolo[1,5-a]pyridine-5-carboxamide] | 1 to 5 |
| CCCCN(CCCC)C(=O)c1ccn2nc(-c3ccc(OC)cc3)c(/C=C/CN3CCCCC3)c2c1 [Example 12, (E)-N,N-Dibutyl-2-(4-methoxyphenyl)-3-(3-(piperidin-1-yl)prop-1-enyl)pyrazolo[1,5-a]pyridine-5-carboxamide] | 1 to 5 |
| COc1cccc(-c2nn3ccc(C(=O)N(CCC(C)C)CCC(C)C)cc3c2/C=C/CN2CCCCC2)c1 [Example 13] | 0.5 to 1 |
| COc1ccc(-c2nn3ccc(C(=O)N(CCC(C)C)CCC(C)C)cc3c2/C=C/CN2CCCCC2)cc1OC [Example 14] | < 0.5 |
| COc1cccc(-c2nn3ccc(C(=O)N(CCC(C)C)CCC(C)C)cc3c2CCCN2CCCCC2)c1 [Example 15] | < 0.5 |
| COc1ccc(-c2nn3ccc(C(=O)N(CCC(C)C)CCC(C)C)cc3c2CCCN2CCCCC2)cc1OC [Example 16] | < 0.5 |
| COc1ccc(-c2nn3ccc(C(=O)N(CCC(C)C)CCC(C)C)cc3c2/C=C/CN(C)C)cc1 [Example 17] | 5 to 15 |
| COc1ccc(-c2nn3ccc(C(=O)N(CCC(C)C)CCC(C)C)cc3c2CCCN(C)C)cc1 [Example 18] | 5 to 15 |
| CCCCCN(CCCCC)C(=O)c1ccn2nc(-c3ccc(OC)cc3)c(/C=C/CN3CCCCC3)c2c1 [Example 19] | 1 to 5 |
| CCOc1ccc(-c2nn3ccc(C(=O)N(CCC(C)C)CCC(C)C)cc3c2/C=C/CN2CCCCC2)cc1 [Example 20] | 1 to 5 |
| CCCCCN(CCCCC)C(=O)c1ccn2nc(-c3ccc(OC)cc3)c(CCCN3CCCCC3)c2c1 [Example 21] | 1 to 5 |
| CCOc1ccc(-c2nn3ccc(C(=O)N(CCC(C)C)CCC(C)C)cc3c2CCCN2CCCCC2)cc1 [Example 22] | 0.5 to 1 |
| COc1ccc(-c2nn3ccc(C(=O)N(CCC(C)C)CCC(C)C)cc3c2/C=C/CN2CCCC2)cc1 [Example 23] | 1 to 5 |
| CC(C)CCN(CCC(C)C)C(=O)c1ccn2nc(-c3ccc(C(=O)O)cc3)c(/C=C/CN3CCCCC3)c2c1 [Example 24] | 1 to 5 |
| CCCCN(CCC)C(=O)c1ccn2nc(-c3ccc(OC)cc3)c(/C=C/CN3CCCCC3)c2c1 [Example 25] | 1 to 5 |

| Structure (SMILES) | IC50 [µM] |
| --- | --- |
| CCCN(CC1CC1)C(=O)c1ccn2nc(-c3ccc(OC)cc3)c(/C=C/CN3CCCCC3)c2c1 [Example 26] | 5 to 15 |
| CCCN(CC1CC1)C(=O)c1ccn2nc(-c3ccc(OC)cc3)c(CCCN3CCCCC3)c2c1 [Example 27] | 5 to 15 |
| CC(C)CCN(CCC(C)C)C(=O)c1ccn2nc(-c3cccc(Br)c3)c(/C=C/CN3CCCCC3)c2c1 [Example 28] | 1 to 5 |
| CC(=O)c1cccc(-c2nn3ccc(C(=O)N(CCC(C)C)CCC(C)C)cc3c2/C=C/CN2CCCCC2)c1 [Example 29] | 0.5 to 1 |
| COC(=O)c1cccc(-c2nn3ccc(C(=O)N(CCC(C)C)CCC(C)C)cc3c2/C=C/CN2CCCCC2)c1 [Example 30] | < 0.5 |
| COC(=O)c1cccc(-c2nn3ccc(C(=O)N(CCC(C)C)CCC(C)C)cc3c2CCCN2CCCCC2)c1 [Example 31] | < 0.5 |
| CC(C)CCN(CCC(C)C)C(=O)c1ccn2nc(-c3cccc(C(C)O)c3)c(CCCN3CCCCC3)c2c1 (centres unmarked) [Example 32] | 0.5 to 1 |
| CC(=O)c1cccc(-c2nn3ccc(C(=O)N(CCC(C)C)CCC(C)C)cc3c2CCCN2CCCCC2)c1 [Example 33] | < 0.5 |
| CC(C)CCN(CCC(C)C)C(=O)c1ccn2nc(-c3ccccc3Br)c(/C=C/CN3CCCCC3)c2c1 [Example 34] | 1 to 5 |
| CC(=O)c1ccccc1-c1nn2ccc(C(=O)N(CCC(C)C)CCC(C)C)cc2c1/C=C/CN1CCCCC1 [Example 35] | 1 to 5 |
| COC(=O)c1ccccc1-c1nn2ccc(C(=O)N(CCC(C)C)CCC(C)C)cc2c1/C=C/CN1CCCCC1 [Example 36] | 1 to 5 |
| CC(C)CCN(CCC(C)C)C(=O)c1ccn2nc(-c3cccc(Br)c3)c(CCCN3CCCCC3)c2c1 [Example 37] | < 0.5 |
| CC(C)CCN(CCC(C)C)C(=O)c1ccn2nc(-c3ccccc3Br)c(CCCN3CCCCC3)c2c1 [Example 38] | 1 to 5 |
| COC(=O)c1ccccc1-c1nn2ccc(C(=O)N(CCC(C)C)CCC(C)C)cc2c1CCCN1CCCCC1 [Example 39] | 1 to 5 |
| CC(=O)c1ccccc1-c1nn2ccc(C(=O)N(CCC(C)C)CCC(C)C)cc2c1CCCN1CCCCC1 [Example 40] | 1 to 5 |
| CC(C)CCN(CCC(C)C)C(=O)c1ccn2nc(-c3ccc(Br)cc3)c(/C=C/CN3CCCCC3)c2c1 [Example 41, (E)-2-(4-Bromophenyl)-N,N-diisopentyl-3-(3-(piperidin-1-yl)prop-1-en-1-yl)pyrazolo[1,5-a]pyridine-5-carboxamide] | 1 to 5 |
| CC(=O)c1ccc(-c2nn3ccc(C(=O)N(CCC(C)C)CCC(C)C)cc3c2/C=C/CN2CCCCC2)cc1 [Example 42, (E)-2-(4-Acetylphenyl)-N,N-diisopentyl-3-(3-(piperidin-1-yl)prop-1-en-1-yl)pyrazolo[1,5-a]pyridine-5-carboxamide] | 0.5 to 1 |
| COC(=O)c1ccc(-c2nn3ccc(C(=O)N(CCC(C)C)CCC(C)C)cc3c2/C=C/CN2CCCCC2)cc1 [Example 43, (E)-Methyl 4-(5-(diisopentylcarbamoyl)-3-(3-(piperidin-1-yl)prop-1-en-1-yl)pyrazolo[1,5-a]pyridin-2-yl)benzoate] | 0.5 to 1 |
| COC(=O)c1ccc(-c2nn3ccc(C(=O)N(CCC(C)C)CCC(C)C)cc3c2CCCN2CCCCC2)cc1 [Example 44] | 0.5 to 1 |
| CC(C)CCN(CCC(C)C)C(=O)c1ccn2nc(-c3ccc(Br)cc3)c(CCCN3CCCCC3)c2c1 [Example 45] | < 0.5 |
| CC(C)CCN(CCC(C)C)C(=O)c1ccn2nc(-c3ccc(C(C)O)cc3)c(CCCN3CCCCC3)c2c1 (centres unmarked) [Example 46, 2-(4-(1-Hydroxyethyl)phenyl)-N,N-diisopentyl-3-(3-(piperidin-1-yl)propyl)pyrazolo[1,5-a]pyridine-5-carboxamide] | < 0.5 |
| CC(=O)c1ccc(-c2nn3ccc(C(=O)N(CCC(C)C)CCC(C)C)cc3c2CCCN2CCCCC2)cc1 [Example 47, 2-(4-Acetylphenyl)-N,N-diisopentyl-3-(3-(piperidin-1-yl)propyl)pyrazolo[1,5-a]pyridine-5-carboxamide] | 0.5 to 1 |
| CCCCN(CCCC)C(=O)c1ccn2nc(-c3ccc(F)cc3)c(CCCN3CCCCC3)c2c1 [Example 48] | 0.5 to 1 |
| CC(C)CCN(CCC(C)C)C(=O)c1ccn2nc(-c3ccc(F)cc3)c(CCCN3CCCCC3)c2c1 [Example 49] | < 0.5 |
| CCCCCN(CCCCC)C(=O)c1ccn2nc(-c3ccc(F)cc3)c(CCCN3CCCCC3)c2c1 [Example 50] | 1 to 5 |
